Legend:
[1] = Solubility of bilastine and mometasone furoate in formulations with HPBCD; assay type: physicochemical; settings: HPBCD 75 mg/mL (7.5 wt %); FIG. 1B
Description: Six different formulations (with mometasone furoate monohydrate and the rest of excipients as defined in example 7) were prepared (see table below). The six formulations had amounts of HPBCD from 12.5 to 100 mg/mL. Then, in each of them an excessive amount of bilastine was added and the maximum solubility was tested. Furthermore, the percentage of the mometasone furoate dissolved was also tested. All the measurements were conducted at time 0.

[2] = Solubility of bilastine in water; assay type: physicochemical; settings: pH-dependent

Structure (SMILES) | solubility of mometasone furoate [1] | solubility in water [2]
C[C@@H]1C[C@H]2[C@@H]3CCC4=CC(=O)C=C[C@]4(C)[C@@]3(Cl)[C@@H](O)C[C@]2(C)[C@@]1(OC(=O)c1ccco1)C(=O)CCl.O [Mometasone Furoate monohydrate, Mometasone furoate monohydrate] | around 4 mg/mL | 
CCOCCn1c(C2CCN(CCc3ccc(C(C)(C)C(=O)O)cc3)CC2)nc2ccccc21 [Bilastine, 2-[4-(2-{4-[1-(2-ethoxyethyl)-1H-benzimidazol-2-yl]-1-piperidinyl}ethyl)phenyl]-2-methylpropanoic acid] |  | only slightly soluble

Source: patent US20230181555A1, “STABLE AND PRESERVED PHARMACEUTICAL COMPOSITIONS OF BILASTINE” (priority 2019, published 2023)
